Measured values published in ChEMBL document CHEMBL1154355, “Identification of the bioactive constituent and its mechanisms of action in mediating the anti-inflammatory effects of black cohosh and related Cimicifuga species on human primary blood macrophages” (2009).
Activity calls are given as the source filed them. No cut-off for these calls is given here.

Columns and labels:
[1] = system: PBMC; test: Antiinflammatory activity in human PBMC assessed as inhibition of 10 ng/ml LPS-induced TNFalpha release at 140 uM pretreated 24 hrs before inducer-challenge measured 24 hrs after LPS addition by ELISA; format: functional
[2] = biological target: MAP kinase p38 (Homo sapiens) (UniProt O15264+Q15759+Q16539+P53778); test: Inhibition of LPS-induced p38 MAPK phosphorylation in human PBMC at 140 uM pretreated 24 hrs before inducer-challenge measured 15 mins after LPS addition by Western blot; format: protein assay
[3] = system: PBMC; test: Inhibition of LPS-induced NFkappaB p65 subunit translocation into nucleus in human PBMC at 140 uM pretreated 24 hrs before inducer-challenge measured 15 mins after LPS addition by Western blot; format: functional, cell-based
[4] = biological target: Mitogen-activated protein kinase; ERK1/ERK2 (Homo sapiens) (UniProt P27361+P28482); test: Inhibition of LPS-induced ERK1/2 phosphorylation in human PBMC at 140 uM pretreated 24 hrs before inducer-challenge measured 15 mins after LPS addition by Western blot; format: protein assay
Mitogen-activated protein kinase; ERK1/ERK2 (Homo sapiens), sequence (P27361 whole entry, looked up): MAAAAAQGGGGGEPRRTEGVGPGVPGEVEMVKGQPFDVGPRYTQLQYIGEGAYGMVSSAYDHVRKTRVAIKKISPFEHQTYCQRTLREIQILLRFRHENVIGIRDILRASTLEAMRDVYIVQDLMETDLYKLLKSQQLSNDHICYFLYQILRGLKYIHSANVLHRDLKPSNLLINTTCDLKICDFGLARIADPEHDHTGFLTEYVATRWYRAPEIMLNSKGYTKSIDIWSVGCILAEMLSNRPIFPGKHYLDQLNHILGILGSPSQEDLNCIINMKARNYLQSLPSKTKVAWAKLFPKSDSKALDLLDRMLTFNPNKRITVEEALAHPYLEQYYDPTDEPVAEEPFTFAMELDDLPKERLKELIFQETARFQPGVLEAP
Mitogen-activated protein kinase; ERK1/ERK2 (Homo sapiens), sequence (P28482 whole entry, looked up): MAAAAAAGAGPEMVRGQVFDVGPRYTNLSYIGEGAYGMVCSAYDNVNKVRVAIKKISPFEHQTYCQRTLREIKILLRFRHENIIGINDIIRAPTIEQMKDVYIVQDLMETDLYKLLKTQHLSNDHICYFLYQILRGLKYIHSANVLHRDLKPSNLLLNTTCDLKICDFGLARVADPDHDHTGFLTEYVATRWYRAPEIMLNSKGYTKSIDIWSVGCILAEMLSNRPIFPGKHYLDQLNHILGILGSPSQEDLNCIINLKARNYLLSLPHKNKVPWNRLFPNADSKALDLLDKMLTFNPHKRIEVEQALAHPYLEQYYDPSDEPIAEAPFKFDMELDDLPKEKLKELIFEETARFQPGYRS

[5] = system: PBMC; test: Antiinflammatory activity in human PBMC assessed as inhibition of 1 ng/ml LPS-induced TNFalpha release at 140 uM pretreated 24 hrs before inducer-challenge measured 24 hrs after LPS addition by ELISA; format: functional
[6] = system: PBMC; test: Antiinflammatory activity in human PBMC assessed as inhibition of 10 ng/ml LPS-induced TNFalpha release at 1.3 uM pretreated 24 hrs before inducer-challenge measured 24 hrs after LPS addition by ELISA; format: functional
[7] = system: PBMC; test: Antiinflammatory activity in human PBMC assessed as inhibition of 10 ng/ml LPS-induced TNFalpha release at 5.1 uM pretreated 24 hrs before inducer-challenge measured 24 hrs after LPS addition by ELISA; format: functional

COc1ccc(/C=C/C(=O)OCC(=O)Cc2ccc(O)c(O)c2)cc1O [CIMIRACEMATE A]
inhibition (INH) [1]: 58% | inhibition [2]: inactive | inhibition [3]: Active | inhibition [4]: Active | inhibition (INH) [5]: 47%

C[C@@H]1C[C@H]2[C@@H]3CCC4=CC(=O)C=C[C@]4(C)[C@@]3(F)[C@@H](O)C[C@]2(C)[C@@]1(O)C(=O)CO [DEXAMETHASONE]
inhibition (INH) [6]: 32% | inhibition (INH) [7]: 25%
